Values after ≈ are worked out from the molar mass of the structure shown. Values joined by “and” are separate entries in the source; they are usually repeats but may differ in a detail not shown here. Equal entries are not always repeated.
How the values were obtained:
[1] = target: human DNA topoisomerase II (Homo sapiens, UniProt P11388); experiment: kDNA assay for testing topoisomerase II activity; assay type: biochemical; settings: compound 1 at 100, 31.6 and 10 μM; reference compounds 100 μM
Procedure: In this assay, which was described by P. Arimondo (Anti-Cancer Drug Design 2000, 15(6), 413–421), kDNA is treated with human DNA topoisomerase II in the absence or presence of the test compounds. In the assay, compound 1 according to the invention was tested at three different concentrations (100, 31.6 and 10 μM). A positive control and the reference compounds m-amsacrine (m-amsa), paclitaxel (Taxol) and vincristine, with the concentration in each case being 100 μM, were used for comparison.
2 μL of 10× assay buffer, 1 μL of kDNA (200 ng), 0.5 μL of human topoisomerase II (1 unit) and 15.5 μL of H2O are added by pipette to 1 μL of initially introduced test substance (20 times concentrated in 100% DMSO) and the reagents are mixed.
The reaction assay samples are placed in a heating block which has been preheated to 37° C. and incubated at 37° C. for 10 min. The incubation is stopped after adding 4 μL of 5× Stop buffer and the substance is subsequently extracted with CIA. After that, 20 μL of the supernatant are loaded onto a 1% agarose gel containing 0.25 μg of ethidium bromide/mL and separated at 100 V for 1 h. Finally, the gel is photographed under UV excitation (see FIG. 1). The inhibition of the decatenation of kDNA is quantified using the GelPro® Analyzer Software (see FIG. 2).

U-937 cell line = experiment: CDDplus nucleosome ELISA test (apoptosis); assay type: cell-based; settings: U-937, 1 nM–10 μM, 24 h of treatment
Procedure: Nuclear fragmentation is a late consequence of apoptotic processes. The changes which can be observed in this connection can be attributed to DNA strands being cleaved by endonucleases and the fragmentation into nucleosome particles which results therefrom.
For this, the effects of compounds 1 and 2 on the U-937 cell line were investigated at different concentrations (1 nM–10 μM; 24 h of treatment). (See FIG. 5 and FIG. 6).

bovine tubulin = bovine tubulin (Bos taurus, UniProt P81947+Q6B856); experiment: Inhibition of tubulin polymerization; assay type: biochemical; settings: summary of Table 3
Procedure: Substances 1, 4, 9, 11, 12, 13 and 15 were tested for their ability to inhibit the polymerization of bovine tubulin in an in-vitro test (D. M. Bollag et al. Cancer Res. 1995, 55, 2325–2333). This test uses-tubulin which has been purified by cycles of polymerization and depolymerization and which is caused to polymerize by adding GTP and heating it. Table 3 gives the EC50 values causing inhibition of the polymerization of tubulin containing 30% associated proteins (MPAs).

human topoisomerase II = human topoisomerase II (Homo sapiens, UniProt P11388); experiment: pRYG relaxation assay for testing topoisomerase II activity; assay type: biochemical; settings: compound 1 at 100, 31.6 and 10 μM; reference compounds 316 and 100 μM
Procedure: In the assay, the compound 1 according to the invention was tested at three different concentrations (100, 31.6 and 10 μM). The reference compounds m-amsacrine, paclitaxel (Taxol) and vincristine were used, at concentrations of 316 and 100 μM, for comparison.
2 μL of 10× assay buffer, 0.5 μL of pRYG DNA (125 ng), 0.5 μL of human topoisomerase II (1 unit) and 16 μL of H2O are added by pipette to 1 μL of initially introduced test substance (20 times concentrated in 100% DMSO) and the reagents are mixed. The reaction assay samples are placed in a heating block which has been preheated to 37° C. and incubated at 37° C. for 30 min. The incubation is stopped after adding 4 μL of 5× Stop buffer. After that, 10 μL of the assay sample are loaded onto a 1.2% agarose gel containing 0.25 μg of ethidium bromide/mL and separated at 100 V for 2.5 h. Finally, the gel is photographed under UV excitation (see FIG. 3). The inhibition of pRYG relaxation is quantified using the GelPro® Analyzer Software (see FIG. 4).

[2] = Saturation solubility in water; assay type: physicochemical; settings: thermodynamic from solid, maximum of 1% DMSO, HPLC-UV
Procedure: A maximum of 1% DMSO was added for the purpose of solubilizing the substances and improving the wetting of the samples. An HPLC-UV method was used for checking the content.

mammary gland, MAXF857 = experiment: Human xenograft model, mammary gland MAXF857; assay type: in vivo
Text: The in-vivo activity and tolerability of compound 2 according to the invention, as compared with those of substance 10, were examined in another human xenograft model (mammary gland, MAXF857).

melanoma, MEXF-462 = experiment: Human xenograft model, melanoma MEXF-462; assay type: in vivo; settings: for tolerability (in words): MEXF462 xenograft, p.o.
Text: The in-vivo activity and tolerability of compound 2 according to the invention, as compared with those of substances 10 and 14, were examined in a human xenograft model (melanoma, MEXF-462).

[3] = test system: doxorubicin-resistant P388; experiment: XTT proliferation assay, P388ADR; assay type: cell-based, murine; settings: Mus musculus
Text: (§1) For further characterization, substances 1, 2, 4 and 11 were investigated with regard to their effect on mulitdrug-resistance cell lines as compared with that on nonresistant wild-type cell lines.
(§2) The cell lines which were investigated are the murine cell line L1210, the acute myeloid leukemia cell line LT12 and the resistant lines L1210/mdr and LT12/mdr. The murine cell line P388 (methylcholanthrene-induced lymphoid neoplasm) and doxorubicin-resistant P388 were also included as test systems.
(§3) The test results are summarized in Table 2 below: • XTT proliferation assay, EC50 in μg/ml

murine cell line L1210 = experiment: XTT proliferation assay, L1210; assay type: cell-based; settings: Mus musculus
Text: as §1, §2, §3

resistant line LT12/mdr = experiment: XTT proliferation assay, LT12/mdr; assay type: cell-based; settings: Rattus norvegicus, LT12mdr
Text: as §1, §2, §3

[4] = test system: resistant line L1210/mdr (L1210VCR); experiment: XTT proliferation assay, L1210VCR; assay type: cell-based, murine; settings: Mus musculus
Text: as §1, §2, §3

[5] = test system: acute myeloid leukemia cell line LT12; experiment: XTT proliferation assay, LT12; assay type: cell-based; settings: Rattus norvegicus
Text: as §1, §2, §3

murine cell line P388 = experiment: XTT proliferation assay, P388; assay type: cell-based; settings: Mus musculus
Text: as §1, §2, §3

KB/HeLa cells = experiment: Cell cycle analysis (G2/M arrest); assay type: cell-based; settings: Homo sapiens, 24 hours, 37° C., read-out: EC50 (50% of cells in G2/M)
Procedure: For the cell cycle analysis, KB/HeLa cells were treated with different concentrations of the test substances (0.1–1000 nM) at 37° C. for 24 hours.
The percentage of cells arrested in the G2/M phase of the cell cycle after having been treated with reference substances or selected test substances is shown in Table 4 below. The results were analyzed using special analytical software (ModFit™).

bovine tubulin, sequence (P81947 whole entry): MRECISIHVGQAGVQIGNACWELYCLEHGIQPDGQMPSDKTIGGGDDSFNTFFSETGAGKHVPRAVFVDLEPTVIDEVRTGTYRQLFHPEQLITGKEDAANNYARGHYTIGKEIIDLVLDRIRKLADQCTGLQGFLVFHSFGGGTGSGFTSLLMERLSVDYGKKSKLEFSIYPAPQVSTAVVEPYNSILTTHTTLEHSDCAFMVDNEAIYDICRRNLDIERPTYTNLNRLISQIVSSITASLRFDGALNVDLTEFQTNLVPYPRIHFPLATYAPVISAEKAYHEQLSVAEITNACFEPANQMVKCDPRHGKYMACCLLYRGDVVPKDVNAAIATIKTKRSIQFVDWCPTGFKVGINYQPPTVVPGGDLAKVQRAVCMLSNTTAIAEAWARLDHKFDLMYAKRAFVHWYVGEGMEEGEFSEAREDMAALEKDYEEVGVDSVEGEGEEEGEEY
bovine tubulin, sequence (Q6B856 whole entry): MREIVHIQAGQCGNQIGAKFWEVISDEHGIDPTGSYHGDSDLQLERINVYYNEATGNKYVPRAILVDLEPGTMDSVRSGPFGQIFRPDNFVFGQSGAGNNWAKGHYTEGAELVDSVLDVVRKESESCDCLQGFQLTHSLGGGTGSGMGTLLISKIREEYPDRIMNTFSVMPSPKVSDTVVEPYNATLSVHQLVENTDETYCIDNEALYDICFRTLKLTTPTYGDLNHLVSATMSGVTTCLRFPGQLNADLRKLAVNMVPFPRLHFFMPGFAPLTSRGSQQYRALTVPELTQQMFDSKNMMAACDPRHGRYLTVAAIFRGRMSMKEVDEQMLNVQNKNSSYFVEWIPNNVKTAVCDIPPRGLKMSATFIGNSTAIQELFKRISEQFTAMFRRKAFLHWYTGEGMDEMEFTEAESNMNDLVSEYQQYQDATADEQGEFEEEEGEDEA
human topoisomerase II, sequence (P11388 whole entry): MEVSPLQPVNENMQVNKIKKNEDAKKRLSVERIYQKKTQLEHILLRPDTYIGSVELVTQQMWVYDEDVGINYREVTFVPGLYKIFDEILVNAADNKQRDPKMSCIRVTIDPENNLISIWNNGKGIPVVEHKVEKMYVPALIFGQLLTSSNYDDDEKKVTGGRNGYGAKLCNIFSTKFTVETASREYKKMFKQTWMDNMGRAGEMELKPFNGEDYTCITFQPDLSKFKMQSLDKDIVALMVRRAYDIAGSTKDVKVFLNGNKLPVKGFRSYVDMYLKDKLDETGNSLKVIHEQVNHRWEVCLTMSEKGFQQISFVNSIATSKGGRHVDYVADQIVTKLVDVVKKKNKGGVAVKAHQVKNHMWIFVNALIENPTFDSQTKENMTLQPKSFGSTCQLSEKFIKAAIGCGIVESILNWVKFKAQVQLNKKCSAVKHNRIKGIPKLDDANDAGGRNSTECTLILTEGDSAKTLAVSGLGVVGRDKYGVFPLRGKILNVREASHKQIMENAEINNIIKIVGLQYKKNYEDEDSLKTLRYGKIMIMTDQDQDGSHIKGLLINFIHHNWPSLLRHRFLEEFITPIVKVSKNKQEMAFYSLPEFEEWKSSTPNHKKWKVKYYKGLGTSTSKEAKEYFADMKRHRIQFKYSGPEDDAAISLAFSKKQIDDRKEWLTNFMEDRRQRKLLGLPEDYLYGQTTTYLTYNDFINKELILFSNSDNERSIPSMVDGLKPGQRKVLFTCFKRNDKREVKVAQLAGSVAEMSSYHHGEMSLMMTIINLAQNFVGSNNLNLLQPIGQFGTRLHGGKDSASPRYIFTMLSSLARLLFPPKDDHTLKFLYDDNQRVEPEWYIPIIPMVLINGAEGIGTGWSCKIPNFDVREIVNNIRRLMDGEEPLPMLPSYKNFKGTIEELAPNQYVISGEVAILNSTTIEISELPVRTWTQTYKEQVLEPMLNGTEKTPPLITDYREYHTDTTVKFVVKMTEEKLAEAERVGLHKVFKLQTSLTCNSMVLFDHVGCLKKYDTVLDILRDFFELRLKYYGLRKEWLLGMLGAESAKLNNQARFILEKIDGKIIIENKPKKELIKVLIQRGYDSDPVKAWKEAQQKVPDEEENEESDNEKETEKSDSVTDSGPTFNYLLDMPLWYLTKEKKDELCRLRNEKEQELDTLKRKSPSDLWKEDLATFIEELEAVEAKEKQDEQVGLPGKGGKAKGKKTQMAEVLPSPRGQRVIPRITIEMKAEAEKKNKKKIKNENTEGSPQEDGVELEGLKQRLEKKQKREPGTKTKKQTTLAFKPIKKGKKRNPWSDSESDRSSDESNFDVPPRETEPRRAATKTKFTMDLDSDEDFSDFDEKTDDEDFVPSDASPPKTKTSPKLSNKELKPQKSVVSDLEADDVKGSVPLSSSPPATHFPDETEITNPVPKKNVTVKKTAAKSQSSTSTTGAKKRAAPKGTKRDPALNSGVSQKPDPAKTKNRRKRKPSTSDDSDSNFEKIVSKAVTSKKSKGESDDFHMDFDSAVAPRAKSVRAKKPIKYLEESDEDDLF
human DNA topoisomerase II, sequence (P11388 whole entry): as above

Row | SMILES | inhibitory effect on tubulin polymerization (in words) (bovine tubulin) | solubility [2] [µg/mL] | EC50 [3] [µg/mL] | EC50 (murine cell line L1210) [µg/mL] | EC50 (resistant line LT12/mdr) [µg/mL] | EC50 [4] [µg/mL] | EC50 [5] [µg/mL] | EC50 (murine cell line P388) [µg/mL] | other results
1 | O=C(Nc1cnc2nccnc2c1)C(=O)c1cn(Cc2ccc(Cl)cc2)c2ccccc12 [Compound 1, 2-[1-(4-chlorobenzyl)-1H-indol-3-yl]-2-oxo-N-pyrido[2,3-b]pyrazin-7-ylacetamide] | very potent inhibitory effect | 25 (≈ 56.6 µM) |  |  |  |  |  |  | inhibition of topoisomerase II, kDNA decatenation [1]: significantly inhibit topoisomerase II; nucleosomes in the cell culture supernatant (U-937 cell line): not possible to demonstrate any significant increase; nucleosomes in the cell lysate (U-937 cell line): concentration-dependent increase of nucleosomes in the cell lysate; inhibition of topoisomerase II, pRYG DNA relaxation (human topoisomerase II): significantly inhibit topoisomerase II
2 | CC(=O)N(C(=O)C(=O)c1cn(Cc2ccc(Cl)cc2)c2ccccc12)c1ccc2ncccc2c1 [Compound 2, N-{2-[1-(4-chlorobenzyl)-1H-indol-3-yl]-2-oxoacetyl}-N-quinolin-6-ylacetamide] |  | 28.5 (≈ 59.1 µM) |  |  |  |  |  |  | Deaths n (dead animals / total number) (mammary gland, MAXF857; MAXF857, 80 mg/kg p.o.): 0/6 mice; Optimum T/C % (day) (mammary gland, MAXF857; MAXF857, 80 mg/kg p.o., day 10): 9.6% (10); Deaths n (dead animals / total number) (melanoma, MEXF-462; MEXF462, 80 mg/kg p.o.): 0/6 mice; remission of the tumors (melanoma, MEXF-462; MEXF462, 80 mg/kg p.o., 6 animals): complete remission of the tumors in the treated animals; Optimum T/C % (day) (melanoma, MEXF-462; MEXF462, 80 mg/kg p.o., day 18): 0.0% (18); tolerability (in words) (melanoma, MEXF-462): very well tolerated (no deaths); nucleosomes in the cell culture supernatant (U-937 cell line): not possible to demonstrate any significant increase; nucleosomes in the cell lysate (U-937 cell line): concentration-dependent increase of nucleosomes in the cell lysate
3 | O=C(Nc1ccc2[nH]ncc2c1)C(=O)c1cn(Cc2ccc(Cl)cc2)c2ccccc12 [Compound 4, 2-[1-(4-chlorobenzyl)-1H-indol-3-yl]-N-(1H-indazol-5-yl)-2-oxoacetamide] | very potent inhibitory effect |  |  |  |  |  |  |  | melting point: 203 °C
4 | Cc1ccc2cc(NC(=O)C(=O)c3cn(Cc4ccc(Cl)cc4)c4ccccc34)ccc2n1 [Compound 9, 2-[1-(4-chlorobenzyl)-1H-indol-3-yl]-N-(2-methylquinolin-6-yl)-2-oxoacetamide] | very potent inhibitory effect |  |  |  |  |  |  |  | 
5 | O=C(Nc1ccc2ncccc2c1)C(=O)c1cn(Cc2ccc(Cl)cc2)c2ccccc12 [Compound 10, 2-[1-(4-chlorobenzyl)-1H-indol-3-yl]-2-oxo-N-quinolin-6-ylacetamide] |  | 0.038 (≈ 0.0864 µM) |  |  |  |  |  |  | Deaths n (dead animals / total number) (mammary gland, MAXF857; MAXF857, 40 mg/kg p.o.): 2/6 and 2/6 mice; tolerability (in words) (mammary gland, MAXF857; MAXF857 xenograft, p.o.): substantially less well tolerated than 2; Deaths n (dead animals / total number) (melanoma, MEXF-462; MEXF462, 55 mg/kg p.o.): 2/6 mice; Deaths n (dead animals / total number) (melanoma, MEXF-462; MEXF462, 70 mg/kg p.o.): 5/6 mice; tolerability (in words) (melanoma, MEXF-462): less well tolerated
6 | O=C(Nc1cccc2cccnc12)C(=O)c1cn(Cc2ccc(Cl)cc2)c2ccccc12 [Compound 12, 2-[1-(4-chlorobenzyl)-1H-indol-3-yl]-2-oxo-N-quinolin-8-ylacetamide] | do not exert any effect |  |  |  |  |  |  |  | melting point: 178 °C
7 | O=C(Nc1ccncc1)C(=O)c1cn(Cc2ccc(Cl)cc2)c2ccccc12 [Compound 14, 2-[1-(4-chlorobenzyl)-1H-indol-3-yl]-2-oxo-N-pyridin-4-ylacetamide] |  | 0.35 (≈ 0.898 µM) |  |  |  |  |  |  | Deaths n (dead animals / total number) (melanoma, MEXF-462; MEXF462, 16 mg/kg p.o.): 3/5 mice; Deaths n (dead animals / total number) (melanoma, MEXF-462; MEXF462, 32 mg/kg p.o.): 3/5 mice; tolerability (in words) (melanoma, MEXF-462): less well tolerated
8 | Cc1ccc2cccc(NC(=O)C(=O)c3cn(Cc4ccc(F)cc4)c4ccccc34)c2n1 [Compound 15, 2-[1-(4-fluorobenzyl)-1H-indol-3-yl]-N-(2-methylquinolin-8-yl)-2-oxoacetamide] | do not exert any effect |  |  |  |  |  |  |  | melting point: 200 to 202 °C
9 | COc1cccc2c1C(=O)c1c(O)c3c(c(O)c1C2=O)C[C@@](O)(C(=O)CO)C[C@@H]3O[C@H]1C[C@H](N)[C@H](O)[C@H](C)O1 [Doxorubicin, doxorubicin] |  |  | > 3.16 | 0.269 (≈ 0.495 µM) | > 3.16 | > 3.16 | 0.029 (≈ 0.0534 µM) | 0.204 (≈ 0.375 µM) | 
10 | COc1cc([C@@H]2c3cc4c(cc3[C@@H](O[C@@H]3O[C@@H]5CO[C@@H](C)O[C@H]5[C@H](O)[C@H]3O)[C@H]3COC(=O)[C@H]23)OCO4)cc(OC)c1O [Etoposide, etoposide] |  |  | > 3.16 | 0.269 (≈ 0.457 µM) | > 3.6 | > 3.16 | 0.094 (≈ 0.16 µM) | 0.202 (≈ 0.343 µM) | 
11 | O=C1c2c(O)ccc(O)c2C(=O)c2c(NCCNCCO)ccc(NCCNCCO)c21 [Mitoxantrone, mitoxantrone] |  |  | 0.608 (≈ 1.37 µM) | 0.09 (≈ 0.202 µM) | 3.1 (≈ 6.97 µM) | 2.1 (≈ 4.72 µM) | 0.006 (≈ 0.0135 µM) | 0.053 (≈ 0.119 µM) | EC50 (KB/HeLa cells): 25.3 nM
12 | CC[C@]1(O)C[C@H]2CN(CCc3c([nH]c4ccccc34)[C@@](C(=O)OC)(c3cc4c(cc3OC)N(C=O)[C@H]3[C@@](O)(C(=O)OC)[C@H](OC(C)=O)[C@]5(CC)C=CCN6CC[C@]43[C@@H]65)C2)C1 [Vincristine, vincristine] |  |  | 0.93 (≈ 1.13 µM) | 0.015 (≈ 0.0182 µM) | 0.134 (≈ 0.162 µM) | > 3.16 | 0.002 (≈ 0.00242 µM) | 0.004 (≈ 0.00485 µM) | inhibition of topoisomerase II, kDNA decatenation [1]: neither paclitaxel nor vincristine was observed to have any inhibitory effects; inhibition of topoisomerase II, pRYG DNA relaxation (human topoisomerase II): neither paclitaxel nor vincristine was observed to have any inhibitory effects

From patent US7205299B2, “Indole derivatives having an apoptosis-inducing effect” (Zentaris GmbH, priority 2003, dated 2007)
